Where two headings read alike, the source gives them in different places.
What was measured:
[1] = Stability of aqueous formulation on shelf storage / accelerated storage; assay type: physicochemical
[2] = Particulate matter in aqueous solution (USP requirements); assay type: physicochemical; conditions: aqueous solution of ganciclovir base at about or below about 3 mg/ml
Source text: As used herein, the term “particulate-matter-free” or its grammatical equivalents such as “particle free” refer to the state in which the composition of the present invention meets the USP requirements for particulate matter in parenteral solutions. See for example, USP XXXII, Chapter 788. One of skill in the art understands and knows how to assess whether a given composition meets USP particulate matter requirements.

[3] = cited from earlier work
[4] = cited from earlier work; remark: listed apart in the source

Structure (SMILES)	retained initial concentration of ganciclovir ([1]; aqueous solution at about or below about 3 mg/ml, accelerated storage or stability testing conditions)	stability for extended shelf-storage ([1]; aqueous solution of ganciclovir base at concentrations of about or below about 3 mg/ml)	particulate matter [2]	solubility in water [3]	solubility in water ([3]; listed as Ganciclovir sodium salt)	stability in an aqueous formulation (prolonged shelf-storage) [4]
Nc1nc2c(ncn2COC(CO)CO)c(=O)[nH]1 [ganciclovir base, 9-(1,3-dihydroxy-2-propoxymethyl)guanine]	at least 95%	stable for extended shelf-storage	free or substantially free of particulate matter	limited solubility in water	–	–
Nc1nc(O)c2ncn(COC(CO)CO)c2n1 [ganciclovir sodium]	–	–	–	–	very soluble in water	not sufficiently stable

Source: patent US20250319189A1, “GANCICLOVIR COMPOSITIONS AND RELATED METHODS” (Exela Pharma Sciences, LLC, priority 2013, published 2025)
